Reference: US20110110918A1, “ROLE OF (DE)ACETYLATION IN COUNTERACTING PROTEIN AGGREGATION” (Rijksuniversiteit Groningen, priority 2008, published 2011)
“Also recorded” adds a separate entry of the source.

B1: wild type DnaJB8: member of the Hsp40 family, chaperone counteracting protein aggregation; V5-tagged, tet-inducible overexpression (protein, UniProt Q8NHS0 1-232, looked up)
DnaJ homolog subfamily B …: MANYYEVLGVQASASPEDIKKAYRKLALRWHPDKNPDNKEEAEKKFKLVSEAYEVLSDSKKRSLYDRAGCDSWRAGGGASTPYHSPFDTGYTFRNPEDIFREFFGGLDPFSFEFWDSPFNSDRGGRGHGLRGAFSAGFGEFPAFMEAFSSFNMLGCSGGSHTTFSSTSFGGSSSGSSGFKSVMSSTEMINGHKVTTKRIVENGQERVEVEEDGQLKSVTVNGKEQLKWMDSK
modifications: V5 tag
notes: member of the Hsp40 family, chaperone counteracting protein aggregation; V5-tagged, tet-inducible overexpression

Tests used:
Format in all cases: cell-based, Human
HDQ119 aggregation = assay: Filter trap assay of HDQ119 aggregation in HEK-293 cells cotransfected with EYFP-HDQ119 and DnaJB6 or DnaJB8; settings: for ability of DnaJB8 and DnaJB6 to suppress HDQ119 aggregation in presence of HDAC inhibitor: HEK-293 expressing DnaJB6 or DnaJB8 (Tet on), Trichostatin A 100 and 500 nM, Tubacin 3 and 5 μM, Niltubacin 3 and 5 μM
Procedure: Cell culture and transient infections. Flp-In T-Rex HEK293 cells (Human embryonic kidney 293) stably expressing the tetracycline (tet) repressor were obtained from Invitrogen. Cells were cultured in DMEM (Gibco) supplemented with 10% foetal bovine serum (Sigma) and 100 units/ml penicillin and 100 μg/ml streptomycin (Invitrogen). 5 μg/ml Blasticidine (Sigma) and 100 μg/ml of Zeocin (Invitrogen) were added to the cultures. Cultures were maintained at 37° C. and 5% CO2 in a humidified incubator. For transient transfections, cells were grown to 50-60% confluence in 35 mm-diameter dishes coated with 0.001% of poly-L-lysine (Sigma) and on coated coverslips for confocal microscopy analyses. Cells were transfected with a total of 1 μg of DNA using Lipofectamine (Gibco) according to the manufacturer instructions.
Plasmids. The construction of pHDQ119-EYFP driving the expression of a fragment of exon-1 of huntingtin fused to the enhanced yellow fluorescent protein was previously described (Rujano et al., 2006). The construction of the tetracycline inducible HSP overexpression plasmids is described by Hageman et al. (manuscript in preparation). Briefly, first the V5 sequence containing a Kozak initiation codon and lacking a stop codon was inserted in pcDNA5/FRT/TO by oligo cloning. Subsequently, the coding sequence of each gene was amplified and the PCR products where purified, cleaved with the respective enzymes and ligated in frame in the pcDNA5/FRT/TO-V5 vector cleaved with the same set of enzymes. Presence of the correct insert was verified using DNA sequencing. Expression of the proteins at the expected molecular mass was verified by Western Not analysis against the V5-tag.
(§1) HDAC inhibition. […] Cell extracts prepared 36 hours after treatment were processed for filter trap essays and western Notting as described before. Increase in acetylated tubulin and histones as detected by western Notting was used as test for functionality.
Cell extracts and sample preparation. 24 hours after transfection cells were recovered by trypsinization, pelleted and resuspended in 1 ml of PBS. The cell suspension was centrifuged at 6000 rpm for 5 min at RT and the pellet was resuspended in 75 μl of RIPA buffer containing 2% SDS supplemented with protease inhibitors and sonicated. Protein content was determined with the DC protein essay (Bio-RAD). Western Not samples were prepared at a final concentration of 1 μg/μl in SDS-PAGE loading buffer and heated for 5 min at 100° C. Filter trap samples were prepared at a final concentration of 100 ng/μl, 20 ng/μl and 4 ng/μl in FTA buffer (10 mM Tris-Cl pH 8.0, 150 mM NaCl and 50 mM dithiothreitol)+2% SDS and heated for 5 min at 100° C. Samples were used immediately or kept frozen at −20° C.
Filter trap assay. Filter trap assay was performed based on the protocol described by Carra et al. (2005). Briefly, 10, 2 and 0.4 μg of protein extracts were applied onto a 0.2 μm pore Cellulose Acetate membrane prewashed with FTA+0.1% SDS. Mild suction was applied and the membrane was washed 3 times with the same buffer. […] For quantitative analysis, relative intensity of the bands was measured using GelPro Analyzer 4.5 gel analyzer software.

DNAJB8 = assay: Mass spectrometry of immunoprecipitated DNAJB8 from TSA-treated cells; settings: TSA-treated cells versus control sample, in-gel digestion
Procedure: Immunoprecipitation. Cells from a 35 mm dish were washed twice with PBS and lysed in 500 μl RIPA (25 mM Tris-HCl pH 7.6, 150 mM NaCl, 1% NP-40, 1% sodium deoxycholate, 0.1% SDS). Lysis was completed by passing the extracts five times through a 21-gauge needle. Subsequently, cell extracts were centrifuged twice at 10,000 G for 10 minutes at 4° C. and the supernatant transferred. Lysates were cleared with agarose A/G beads for 1 hour at 4° C. in a rotator. In the mean time, 0.5 μg V5 anti-body was incubated with […] agarose A/G plus agarose beads (Santa Cruz Biotechnology) and 50 μl RIPA for 1 hour at 4° C. Thereafter, samples were centrifuged at 1000 g for 30 seconds and the supernatant was transferred to a new tube together with 50 μl of the pre-incubated antibody and incubated for 1 more hour in a rotator. Thereafter, the beads were washed twice with RIPA and twice with PBS. After the final wash, 30 μl of RIPA was added together with 30 μl Laemmli sample buffer and boiled for 5 minutes. 10 μl of the extract was loaded and subjected for Western blot analysis.
Mass Spectometry. […]
The digested material was analyzed by nanoLC-MS/MS on an Ultimate 3000 system (Dionex, Amsterdam, The Netherlands) connected on-line with a LTQ-Orbitrap-XL mass spectrometer (ThermoFisher Scientific, San Jose, Calif.). […]

HDAC-6 = assay: Western blot of acetylated tubulin as test for HDAC inhibitor functionality; settings: control cells or cells expressing DnaJB8
Procedure: as §1
Western blot analysis. […] Proteins were transferred onto nitrocellulose membranes and probed with monoclonal anti-GFP antibody GL-8 (Clontech) at a 1:5000 dilution and monoclonal anti-V5 antibody (Invitrogen) at a 1:5000 dilution. GAPDH was used a loading control and was detected with a monoclonal antibody (RDI Research Diagnostics) at 1:1000 dilution. Blots were incubated with HRP-conjugated anti-mouse secondary antibody (Amersham) at 1:5000 dilution, and visualization was made using enhanced chemiluminescence and Hyperfilm (ECL, Amersham).

| Molecule | DnaJB8 and DnaJB6 activity on HDQ119 aggregation (HDQ119 aggregation; 0.5 μM TSA) | ability of DnaJB8 and DnaJB6 to suppress HDQ119 aggregation in presence of HDAC inhibitor (HDQ119 aggregation) | HDQ119 aggregation in cells transfected with the empty vector (HDQ119 aggregation; empty plasmid (FRT TO), HEK-293, different concentrations of TSA) | acetylated DNAJB8 peptides (K61, K216, K223) detected by mass spectrometry (DNAJB8) | tubulin acetylation (cellular content of acetylated tubulin) (HDAC-6) | suppression of poly-Q huntingtin (HDQ119) aggregation by overexpressed DnaJB8 variant (HDQ119 aggregation; Tet on, 24 h after cotransfection, filter trap 10, 2 and 0.4 ug protein/slot) |
| --- | --- | --- | --- | --- | --- | --- |
| CC(/C=C/C(=O)NO)=C\[C@@H](C)C(=O)c1ccc(N(C)C)cc1 [TSA, Trichostatin A] | completely annihilated DnaJB8 and DnaJB6 activity | but not after HDAC inhibition with TSA; also recorded: stronly reduced; also recorded: concentration dependent loss of the ability of DnaJB8 and DnaJB6 to reduce HQ119 aggregation | slightly enhanced HDQ119 aggregation | 3 peaks in the TSA-treated samples that were absent in the control sample | increases the cellular content of acytelated Tubulin; also recorded: equally effective in increasing tubulin acetylation |  |
| O=C(CCCCCCC(=O)Nc1ccc([C@H]2O[C@@H](CSc3nc(-c4ccccc4)c(-c4ccccc4)o3)C[C@@H](c3ccc(CO)cc3)O2)cc1)NO [Tubacin] |  | did not result in inhibition of DnaJB8 and DnaJB6 activity |  |  | increases the cellular content of acytelated Tubulin; also recorded: equally effective in increasing tubulin acetylation |  |
| B1 |  |  |  |  |  | substantially suppressed aggregation of poly-Q huntingtin |
